Source: patent US20220242850A1, “PHTHALAZIN-1-ONE DERIVATIVES USEFUL AS GRK2 INHIBITORS” (Janssen Pharmaceutica NV, priority 2019, published 2022)

biological target: T1, GRK2 (Homo sapiens, UniProt P25098); assay: hGRK2 LANCE Ultra In Vitro Assay; assay type: biochemical; conditions: hGRK2 LANCE Ultra Assay IC50, 10 nM GRK2; ATP 30 or 600 μM (not stated which)
T1 sequence (P25098 1-689): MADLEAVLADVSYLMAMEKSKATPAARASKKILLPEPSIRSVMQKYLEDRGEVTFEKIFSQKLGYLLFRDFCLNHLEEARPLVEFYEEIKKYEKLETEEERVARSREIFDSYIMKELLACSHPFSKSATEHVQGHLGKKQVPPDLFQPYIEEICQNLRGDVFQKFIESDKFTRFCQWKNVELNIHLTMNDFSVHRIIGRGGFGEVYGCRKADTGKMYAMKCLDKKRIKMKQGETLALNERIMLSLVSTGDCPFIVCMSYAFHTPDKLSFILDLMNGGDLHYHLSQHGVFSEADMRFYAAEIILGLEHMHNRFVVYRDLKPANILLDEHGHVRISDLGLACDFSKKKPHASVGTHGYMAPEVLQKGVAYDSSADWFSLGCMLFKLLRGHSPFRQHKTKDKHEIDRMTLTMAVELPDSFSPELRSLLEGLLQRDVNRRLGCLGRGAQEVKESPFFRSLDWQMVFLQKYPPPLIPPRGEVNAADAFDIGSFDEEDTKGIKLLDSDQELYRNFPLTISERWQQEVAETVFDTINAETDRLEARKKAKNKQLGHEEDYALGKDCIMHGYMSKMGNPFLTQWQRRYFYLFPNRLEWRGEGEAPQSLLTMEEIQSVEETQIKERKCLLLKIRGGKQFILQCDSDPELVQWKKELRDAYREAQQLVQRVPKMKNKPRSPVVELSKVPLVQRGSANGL
Procedure: G-protein coupled receptor kinases (GR Kinases) desensitize activated G-protein coupled receptors (GPCRs), by phosphorylation of cytoplasmic loops or carboxyl-terminal tails of GPCRs. GRK2 is one of the 6 different GR kinases and is implicated in heart failure and diabetes.
This assay is sensitive and requires as low as 10 nM enzyme, in a total volume of 10 μL. In addition, the ATP concentration can be varied over a broad range, without interfering with the assay or changing the assay condition. […] Testing inhibitors routinely at both high and low ATP concentrations also enables identification of potential non-ATP competitive inhibitors.
Paroxetine was used as the reference compound in this assay.
Test compounds were dissolved in DMSO at 1 mM and were 3-fold serial diluted. The compound DMSO solutions were then added (100 nL) into a plate well using an acoustic dispenser. To each well was then added 20 nM GRK2 (5 μL) in assay buffer (20 mM HEPES, pH 7.5, 10 mM MgCl2, 0.001% Tween-20®). The plate was sealed and centrifuged at 1000 rpm for 1 min. The plate and wells containing a mixture of GRK2 and test compound were incubated at ambient temperature for 30 min (prior to initializing the enzymatic reaction).
Enzyme reactions were initiated by the addition of 4.9 μL Substrates/Eu-Ab mix to each well. […] Final concentrations of reagents in the assays were as follows: 20 mM HEPES, pH 7.5; 10 mM MgCl2; 0.001% Tween-2® (w/v), 30 or 600 μM ATP; 200 nM ULight-peptide; 4 nM Eu-Ab; 10 nM GRK2; and 1% DMSO.
The plates were sealed and centrifuged at 1000 rpm for 1 min. For reactions at low ATP concentration (30 μM), reaction mixtures were incubated at ambient temperature for 120 min. For reactions at high ATP concentration (600 μM), reaction mixtures were incubated at ambient temperature for 60 min.
The enzyme reactions were quenched by addition of 10 μL of 12 mM EDTA in 1× LANCE detection solution to each well. The plates were then incubated at ambient temperature for 30 min.
The raw HTRF data were converted to % active as follows:
% active=(sample−NC)/(PC−NC)*100
where NC is the mean of negative control (reactions without GRK2), and PC is the mean of positive control (reactions with GRK2 but without inhibitor). IC50 values were determined from a 4-parameter fit, using the following equation:
Y=Bottom+(Top−Bottom)/(1+10^(Log IC50-X)*Hill slope)),
where X=log10 of the compound concentration.

Compound | IC50 [nM]
C#CCNC(=O)c1cccc(Cn2ncc3ccc(-c4cn[nH]c4)cc3c2=O)c1 [Compound 8, 3-[[1-Oxo-7-(1H-pyrazol-4-yl)phthalazin-2-yl]methyl]-N-prop-2-ynyl-benzamide] | 10
COc1cccc(Cn2ncc3ccc(-c4cn[nH]c4)c(F)c3c2=O)c1 [Compound 9, 8-Fluoro-2-[(3-methoxyphenyl)methyl]-7-(1H-pyrazol-4-yl)phthalazin-1-one] | 11
COc1cccc(Cn2ncc3ccc(-c4cn[nH]c4)c(C#N)c3c2=O)c1 [Compound 10, 3-[(3-Methoxyphenyl)methyl]-4-oxo-6-(1H-pyrazol-4-yl)phthalazine-5-carbonitrile] | 11
CC(C)NC(=O)c1cc(Cn2ncc3ccc(-c4cn[nH]c4)cc3c2=O)ccc1F [Compound 11, 2-Fluoro-N-isopropyl-5-[[1-oxo-7-(1H-pyrazol-4-yl)phthalazin-2-yl]methyl]benzamide] | 12
CN(C)C(=O)COc1cccc(Cn2ncc3ccc(-c4cn[nH]c4)cc3c2=O)c1 [Compound 12, N,N-Dimethyl-2-[3-[[1-oxo-7-(1H-pyrazol-4-yl)phthalazin-2-yl]methyl]phenoxy]acetamide] | 13
O=C(NC1CC1)c1cc(Cn2ncc3ccc(-c4cn[nH]c4)cc3c2=O)ccc1F [Compound 13, N-Cyclopropyl-2-fluoro-5-[[1-oxo-7-(1H-pyrazol-4-yl)phthalazin-2-yl]methyl]benzamide] | 18
C#CCOc1cccc(Cn2ncc3ccc(-c4cn[nH]c4)c(F)c3c2=O)c1 [Compound 14, 8-Fluoro-2-[(3-prop-2-ynoxyphenyl)methyl]-7-(1H-pyrazol-4-yl)phthalazin-1-one] | 25
COc1cccc(C(CO)n2ncc3ccc(-c4cn[nH]c4)cc3c2=O)c1 (stereo not drawn) [Compound 15, 2-[2-Hydroxy-1-(3-methoxyphenyl)ethyl]-7-(1H-pyrazol-4-yl)phthalazin-1-one] | 33
COc1cccc(C(C(=O)O)n2ncc3ccc(-c4cn[nH]c4)cc3c2=O)c1 (stereo not drawn) [Compound 18, 2-(3-Methoxyphenyl)-2-[1-oxo-7-(1H-pyrazol-4-yl)phthalazin-2-yl]acetic acid] | > 20000
